In PubChem BioAssay (NCI):
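1) Cells in 96-well plates. 2) Compound, 48 h, 5 concentrations. 3) Linear interpolation between surrounding doses. 4) Unreached endpoint = highest concentration. GI50 = concentration required for 50% inhibition of growth. The concentration for full growth arrest is given as TGI.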

Legend:
Experiment in all cases: NCI anticancer screen, dose series, 48 h
[1] = test system: MALME-3M melanoma
[2] = test system: A498 renal
[3] = test system: IGROV1 ovarian
[4] = test system: SNB-75 CNS
[5] = test system: MOLT-4 leukemia
[6] = test system: LOX IMVI melanoma
[7] = test system: MCF7 breast
[8] = test system: MDA-MB-435
[9] = test system: RXF 393 renal
[10] = test system: OVCAR-4 ovarian

| Compound | GI50 [1] | TGI [1] | GI50 [2] | TGI [2] | GI50 [3] | TGI [3] | GI50 [4] | TGI [4] | GI50 [5] | TGI [5] | GI50 [6] | TGI [6] | GI50 [7] | TGI [7] | GI50 [8] | TGI [8] | GI50 [9] | TGI [9] | GI50 [10] | TGI [10] |
| --- | --- | --- | --- | --- | --- | --- | --- | --- | --- | --- | --- | --- | --- | --- | --- | --- | --- | --- | --- | --- |
| CCCCc1n(Cc2ccc3ccccc3n2)cc[n+]1Cc1ccc2ccccc2c1 | 643 nM | 2.21 µM | 1.18 µM | 4.45 µM | 0.731 µM | 2.38 µM | 289 nM | 1.74 µM | 1060 nM | 3.61 µM | 736 nM | 1.95 µM | 690 nM | 2.27 µM | 661 nM | 1.9 µM | 1220 nM | 3.16 µM | 0.262 µM | 1.63 µM |
| COc1ccc(/C=N/C2=NNC(C)(c3ccccc3O)N2C(Cc2c[nH]c3ccccc23)C(=O)O)cc1 (stereo not given) | 1900 nM | 6.49 µM | 3.1 µM | 9.03 µM | 1.72 µM | 9.5 µM | 1720 nM | 13.4 µM | 3000 nM | 13.9 µM | 2680 nM | 10.1 µM | 2230 nM | 10.9 µM | 1700 nM | 5.68 µM | 1270 nM | 6.26 µM | 2.26 µM | 15.1 µM |
| COc1ccccc1C(=O)Nc1ccc(Cl)c(C(=O)OC(C)C)c1 | – | > 100 µM | – | > 90.4 µM | – | > 100 µM | – | > 100 µM | – | > 76.5 µM | – | > 62.3 µM | – | > 100 µM | – | > 100 µM | – | > 100 µM | – | > 100 µM |
| COC(=O)[C@]12CC[C@@H](C)[C@H](C)[C@@H]1C1=CC[C@@H]3[C@@]4(C)C(C=O)=C[C@@](C)(COC(=O)c5ccco5)C4=CC[C@@]3(C)[C@]1(C)CC2 | 38.3 nM | 0.444 µM | 2.81 µM | 16.9 µM | 4.06 µM | 24.3 µM | 2470 nM | 25.5 µM | 2110 nM | 7.1 µM | 1700 nM | 3.15 µM | 2770 nM | 10.3 µM | 66.3 nM | 2.96 µM | 1700 nM | 3.77 µM | 3.54 µM | 22.4 µM |
| Cn1c(=O)c2[nH]c(CCS)nc2n(C)c1=O | – | > 100 µM | – | > 100 µM | – | > 100 µM | – | 67.7 µM | – | > 100 µM | – | > 100 µM | – | > 100 µM | – | > 100 µM | – | > 100 µM | – | > 100 µM |
| COc1ccc(-c2cncn2-c2ccc(-c3nc4cc(OC)c(OC)c(OC)c4s3)cc2)cc1N | 2480 nM | 9.97 µM | 4.83 µM | > 100 µM | 4.9 µM | > 100 µM | 52300 nM | > 100 µM | 4000 nM | > 100 µM | 4750 nM | > 100 µM | 4070 nM | > 100 µM | 3130 nM | > 100 µM | 5980 nM | > 100 µM | 6.29 µM | > 100 µM |
| C=CC(=O)N1CCC(CNc2ncnc(N)c2-c2ccc(Oc3ccccc3)cc2)CC1 | 23900 nM | 67 µM | 10.7 µM | 31.9 µM | 8.51 µM | 35.8 µM | 13400 nM | 58.9 µM | 18600 nM | 66 µM | 16300 nM | 33.2 µM | 23400 nM | > 100 µM | 27900 nM | 97.5 µM | 22400 nM | 85.2 µM | 24.1 µM | > 100 µM |
